# Patent US20090186929A1, “Method and agent for inducing apoptosis/cell death in leukemia cells” (U.S. DEPARTMENT OF VETERANS AFFAIRS, priority 2003, published 2009)
# Where a name gives a salt, the structure may show the parent alone. Read-outs that look alike come from different tables or passages of the source.
# What was measured:
# CLL cells [1] = test: Cytotoxicity of NOS inhibitors for CLL cells in vitro (MTS assay); conditions: for EC50: read-out: Mean ED50 ± S.E.M. (CLL cell cytotoxicity)
# Description: We worked to optimize the culture of CLL cells (Reference 86). […] These were all tested with and without albumin, fetal bovine serum, human serum, glutamine, insulin, transferrin, selenium, and mercaptoethanol.
# Toxicity could be detected by disappearance of cells from the culture (reduction in overall cell number), uptake of trypan blue, propidium iodide uptake (flow cytometry), MTS (4,5-dimethylthiazol-2-yl)-5-(3-carboxymethoxyphenyl)-2-(4-sulfophenyl)-2H-tetrazolium, inner salt) assay (cellular respiration), and several parameters of apoptosis [annexin V assay, DNA content […], and TUNEL assay].
# purified human NOS2 = target: T1, purified human NOS2 (Homo sapiens, UniProt P35228); test: Inhibition of purified NOS2 enzyme activity; format: biochemical; conditions: mean ± SEM, N = 3
# T1 construct: determined using purified recombinant full-length human NOS1 and NOS2
# T1 sequence (P35228 whole entry): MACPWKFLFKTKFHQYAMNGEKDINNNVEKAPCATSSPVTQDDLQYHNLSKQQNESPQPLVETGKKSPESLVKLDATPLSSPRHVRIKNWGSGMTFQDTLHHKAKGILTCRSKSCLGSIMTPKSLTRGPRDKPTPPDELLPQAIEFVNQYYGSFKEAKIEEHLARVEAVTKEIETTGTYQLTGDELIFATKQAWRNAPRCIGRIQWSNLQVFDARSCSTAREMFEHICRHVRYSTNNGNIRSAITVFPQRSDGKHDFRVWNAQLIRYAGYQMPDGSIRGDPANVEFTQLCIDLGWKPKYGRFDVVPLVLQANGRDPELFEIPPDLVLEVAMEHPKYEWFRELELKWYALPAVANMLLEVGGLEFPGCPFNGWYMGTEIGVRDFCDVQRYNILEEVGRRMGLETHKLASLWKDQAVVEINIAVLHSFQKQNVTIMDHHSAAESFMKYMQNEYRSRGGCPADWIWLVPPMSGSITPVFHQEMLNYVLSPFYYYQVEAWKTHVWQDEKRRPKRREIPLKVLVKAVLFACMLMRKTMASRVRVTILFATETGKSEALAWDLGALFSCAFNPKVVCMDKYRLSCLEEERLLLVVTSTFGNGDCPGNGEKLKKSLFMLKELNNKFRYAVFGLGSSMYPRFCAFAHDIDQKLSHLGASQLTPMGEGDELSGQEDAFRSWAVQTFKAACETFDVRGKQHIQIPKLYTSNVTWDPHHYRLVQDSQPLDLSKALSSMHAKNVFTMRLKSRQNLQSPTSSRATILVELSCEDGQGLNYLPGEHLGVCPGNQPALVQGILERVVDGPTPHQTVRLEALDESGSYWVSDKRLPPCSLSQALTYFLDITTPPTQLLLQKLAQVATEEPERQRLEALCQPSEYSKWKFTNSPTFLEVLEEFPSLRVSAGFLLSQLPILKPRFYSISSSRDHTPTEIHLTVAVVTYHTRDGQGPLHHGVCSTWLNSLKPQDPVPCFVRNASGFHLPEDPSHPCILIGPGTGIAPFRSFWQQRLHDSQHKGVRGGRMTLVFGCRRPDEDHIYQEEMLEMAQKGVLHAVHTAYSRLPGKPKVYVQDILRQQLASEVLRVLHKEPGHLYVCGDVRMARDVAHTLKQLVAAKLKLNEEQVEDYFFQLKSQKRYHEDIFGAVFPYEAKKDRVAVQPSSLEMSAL
# Protocol: (§1) The NOS1 and NOS2 IC50's and Kd's for each NOS inhibitor were determined using purified recombinant full-length human NOS1 and NOS2. The cLogP value for each NOS inhibitor was determined using the CLOGP computer program (BioByte, Claremont, Calif.). […] Linear regression was used to examine the correlation between the IC50, Kd and cLogP values and ED50 values.
# (§2) We determined the dissociation constant for NOS inhibitor binding (Kd) to purified recombinant and NOS2.
# purified human NOS1 = target: T2, purified human NOS1 (Homo sapiens, UniProt P29475); test: Inhibition of purified NOS1 enzyme activity; format: biochemical; conditions: mean ± SEM, N = 3
# T2 construct: determined using purified recombinant full-length human NOS1 and NOS2
# T2 sequence (P29475 whole entry): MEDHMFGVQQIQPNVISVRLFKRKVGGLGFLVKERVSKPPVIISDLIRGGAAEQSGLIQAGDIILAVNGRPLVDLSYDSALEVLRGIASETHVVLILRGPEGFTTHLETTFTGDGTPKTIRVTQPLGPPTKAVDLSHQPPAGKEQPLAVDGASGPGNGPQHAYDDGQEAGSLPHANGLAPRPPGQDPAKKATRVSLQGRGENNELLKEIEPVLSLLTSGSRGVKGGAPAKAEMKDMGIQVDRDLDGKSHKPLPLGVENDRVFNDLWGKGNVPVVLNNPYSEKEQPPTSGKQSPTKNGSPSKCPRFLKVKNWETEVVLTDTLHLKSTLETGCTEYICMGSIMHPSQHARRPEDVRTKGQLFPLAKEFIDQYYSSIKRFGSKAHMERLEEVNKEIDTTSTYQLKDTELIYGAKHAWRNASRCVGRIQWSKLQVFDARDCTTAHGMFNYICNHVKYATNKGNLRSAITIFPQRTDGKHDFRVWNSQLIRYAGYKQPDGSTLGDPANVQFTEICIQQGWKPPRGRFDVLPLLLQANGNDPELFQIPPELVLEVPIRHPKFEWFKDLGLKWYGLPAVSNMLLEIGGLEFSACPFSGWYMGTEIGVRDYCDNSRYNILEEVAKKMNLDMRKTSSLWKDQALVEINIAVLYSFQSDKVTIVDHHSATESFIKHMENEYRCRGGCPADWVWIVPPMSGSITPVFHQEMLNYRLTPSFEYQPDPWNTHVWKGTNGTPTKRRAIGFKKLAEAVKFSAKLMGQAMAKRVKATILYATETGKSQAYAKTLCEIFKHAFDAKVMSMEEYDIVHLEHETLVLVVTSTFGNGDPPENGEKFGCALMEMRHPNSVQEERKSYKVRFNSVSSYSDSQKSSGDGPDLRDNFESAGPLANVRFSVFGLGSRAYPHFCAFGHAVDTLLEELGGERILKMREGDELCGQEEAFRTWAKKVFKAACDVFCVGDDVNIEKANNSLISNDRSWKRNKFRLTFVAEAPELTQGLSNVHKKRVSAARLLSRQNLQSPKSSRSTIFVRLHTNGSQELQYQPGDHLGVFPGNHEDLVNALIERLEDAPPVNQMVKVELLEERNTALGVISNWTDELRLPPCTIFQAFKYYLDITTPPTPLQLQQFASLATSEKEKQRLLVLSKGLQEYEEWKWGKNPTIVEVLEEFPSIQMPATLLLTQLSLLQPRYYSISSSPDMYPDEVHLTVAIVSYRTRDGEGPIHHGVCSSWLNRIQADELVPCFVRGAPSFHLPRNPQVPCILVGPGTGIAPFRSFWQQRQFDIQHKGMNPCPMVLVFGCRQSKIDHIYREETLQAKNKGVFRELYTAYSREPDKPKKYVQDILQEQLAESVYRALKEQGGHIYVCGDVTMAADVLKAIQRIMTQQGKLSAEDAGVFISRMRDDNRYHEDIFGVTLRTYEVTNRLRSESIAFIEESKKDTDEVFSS
# Protocol: as §1, §2
# [2] = test system: freshly-isolated CLL cells; test: Exogenous NO donors and drugs on freshly-isolated CLL cells (apoptosis and death); format: cell-based, human; conditions: for NO / DETA-NO interaction with the agent's activity on CLL cells: combination of the agent with NO donor
# Description: We next wanted to examine CLL cells. These malignant cells differ in many ways from ANLL and normal hematopoietic. In addition to their different lineage, they are unique in that they have a very low […], exist primary in the G0 phase of the cell cycle, and have defective apoptosis.
# [3] = 50 mg/kg in mice; cited from earlier work
# CLL cells [4] = test: CLL cell apoptosis by Annexin V binding; format: cell-based, human
# Protocol: Annexin V binding to CLL cells increased after CLL cell co-culture for 2-6 h.
# CLL cell caspase-3 = CLL cell caspase-3 enzyme activity after culture with AR-R17477; format: cell-based, human; conditions: for Mean caspase-3 activity: 4 h culture, N = 3
# [5] = target: T3, purified recombinant human NOS2 oxygenase domain (Homo sapiens, UniProt P35228); test: NOS inhibitor binding (Kd) to NOS2
# T3 construct: purified recombinant human NOS2 oxygenase domain
# T3 sequence (P35228 1-504 limits assumed): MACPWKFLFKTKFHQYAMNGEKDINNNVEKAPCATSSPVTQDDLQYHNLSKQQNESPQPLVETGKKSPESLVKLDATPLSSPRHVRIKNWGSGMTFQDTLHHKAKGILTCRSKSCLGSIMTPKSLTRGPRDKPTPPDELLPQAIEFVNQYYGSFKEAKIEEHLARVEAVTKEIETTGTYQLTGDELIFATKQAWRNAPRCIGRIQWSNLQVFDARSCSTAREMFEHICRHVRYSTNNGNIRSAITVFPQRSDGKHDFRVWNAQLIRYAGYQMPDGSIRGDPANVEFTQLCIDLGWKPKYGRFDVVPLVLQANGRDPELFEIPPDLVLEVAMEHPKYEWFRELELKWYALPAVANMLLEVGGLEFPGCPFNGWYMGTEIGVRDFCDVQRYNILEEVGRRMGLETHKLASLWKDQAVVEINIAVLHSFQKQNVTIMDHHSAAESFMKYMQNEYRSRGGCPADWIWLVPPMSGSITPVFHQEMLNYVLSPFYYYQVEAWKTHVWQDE
# Protocol: […] The cLogP value for each NOS inhibitor was determined using the CLOGP computer program (BioByte, Claremont, Calif.). […] Linear regression was used to examine the correlation between the IC50, Kd and cLogP values and ED50 values.
# as §2
# [6] = target: T4, purified recombinant rat NOS1 oxygenase domain (Rattus norvegicus, UniProt P29476); test: NOS inhibitor binding (Kd) to NOS1
# T4 construct: purified recombinant rat NOS1 oxygenase domain
# T4 sequence (P29476 1-720 limits assumed): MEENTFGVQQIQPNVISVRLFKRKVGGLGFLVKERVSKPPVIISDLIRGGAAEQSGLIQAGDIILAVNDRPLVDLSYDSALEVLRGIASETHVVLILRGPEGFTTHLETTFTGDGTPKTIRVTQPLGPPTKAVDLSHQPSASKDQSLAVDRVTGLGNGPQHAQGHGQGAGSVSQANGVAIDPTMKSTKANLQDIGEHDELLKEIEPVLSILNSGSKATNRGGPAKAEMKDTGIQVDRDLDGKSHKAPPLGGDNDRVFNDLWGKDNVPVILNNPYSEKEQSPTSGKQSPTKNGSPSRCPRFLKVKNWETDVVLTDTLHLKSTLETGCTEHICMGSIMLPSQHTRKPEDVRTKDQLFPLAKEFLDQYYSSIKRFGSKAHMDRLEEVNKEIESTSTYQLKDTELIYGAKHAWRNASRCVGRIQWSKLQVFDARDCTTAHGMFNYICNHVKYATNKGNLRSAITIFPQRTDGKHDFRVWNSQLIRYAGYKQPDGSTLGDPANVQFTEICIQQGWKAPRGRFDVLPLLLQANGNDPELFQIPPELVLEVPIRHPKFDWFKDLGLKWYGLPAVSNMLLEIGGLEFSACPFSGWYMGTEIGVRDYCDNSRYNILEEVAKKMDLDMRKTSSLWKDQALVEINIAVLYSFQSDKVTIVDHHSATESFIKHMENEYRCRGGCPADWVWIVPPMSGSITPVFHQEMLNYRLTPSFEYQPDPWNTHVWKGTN
# normal human BM cells = test: NO drugs on colony formation of normal human BM cells; format: cell-based; conditions: for Development of marrow colonies: methylcellulose with erythropoietin and colony stimulating factors
# Protocol: The effects of NO on the growth and differentiation of normal human BM cells were analyzed (Reference 85). We felt that normal hematopoietic cells, like malignant hematopoietic cells, would be affected by NO. […] NO reduced formation of BFU-E (burst forming unit-erythroid), CFU-E, CFU-GM (colony forming unit-granulocyte/macrophage), and CFU-M (colony forming unit-macrophage). […] In retrospect, we think that the increase in CFU-GM by NO from SNP may be due to alterations in apoptosis secondary to changes in bcl-2 or caspases. None of the noted inhibitions were related to cGMP (cyclic-guanosine monophosphate).
# [7] = test system: HL-60 myeloblastic leukemia cells; test: NO drugs on growth of HL-60 myeloblastic leukemia cells; format: cell-based, human; conditions: NO delivered from the drug
# Description: While studying NO and macrophages progressed in the late 1980s, we hypothesized that NO produced in the BM (bone marrow) would be a modulator of normal and leukemic hematopoiesis. […] The differentiated cells were vacuolated, and had increased expression of nonspecific esterase, CD11b, and CD14.
# [8] = MTS assay, CLL cell samples from different subjects
compound,measurement,setting,value
"N=C(N)SCCc1cccc(CCSC(=N)N)c1 [1,3 PB-ITU, S,S′-(1,3-Phenylene-bis(1,2-ethanediyl))bis-isothiourea 2HBr]",EC50,"CLL cells [1]; Homo sapiens, CLL cell",293 ± 26.5 µM
same,IC50,purified human NOS2,1.6 ± 0.3 µM
same,IC50,purified human NOS1,4.7 ± 0.8 µM
"N=C(N)SCCc1ccc(CCSC(=N)N)cc1 [1,4 PB-ITU, S,S′-(1,4-Phenylene-bis(1,2-ethanediyl))bis-isothiourea 2HBr]",EC50,"CLL cells [1]; Homo sapiens, CLL cell",321 ± 38.9 µM
"O=[N+]([O-])c1cccc2c(Br)n[nH]c12 [3-Bromo-7-NI, 3-Bromo-7-nitroindazole]",EC50,"CLL cells [1]; Homo sapiens, CLL cell",225 ± 20 µM
O=c1[nH]cc(F)c(=O)[nH]1 [5-fluorouracil],NO / DETA-NO interaction with the agent's activity on CLL cells,[2],did not enhance the activity
"O=[N+]([O-])c1cccc2cn[nH]c12 [7-NI, 7-Nitroindazole]",EC50,"CLL cells [1]; Homo sapiens, CLL cell",200 ± 29 µM
same,Effect on anxiety and depression,[3],effective at reducing anxiety and depression
same,Side effects,[3],mild motor incoordination
same,IC50,purified human NOS2,45 ± 5.9 µM
same,IC50,purified human NOS1,72 ± 16 µM
"COc1nc(N)nc2c1ncn2[C@@H]1O[C@H](CO)[C@@H](O)[C@@H]1O [506U78, 2-amino-9-β-D-6-methoxy araguanine]",NO / DETA-NO interaction with the agent's activity on CLL cells,[2],synergized
"CC(=N)NCc1cccc(CN)c1 [1400W, N-(3-(Aminomethyl)benzyl)acetamidine 2HCl]",EC50,"CLL cells [1]; Homo sapiens, CLL cell",8240 ± 1880 µM
"CC1CCN=C(N)S1 (centres unmarked) [AMT, 2-Amino-5,6-dihydro-6-methyl-4H-1.3-thiazine HCl]",IC50,purified human NOS2,0.054 ± 0.001 µM
same,IC50,purified human NOS1,0.092 ± 0.002 µM
"Cl.Cl.N=C(Nc1ccc(CCNCc2cccc(Cl)c2)cc1)c1cccs1 [AR-R17477, N-(4-(2-((3-Chlorophenylmethyl)amino)ethyl)phenyl)-2-thiophecarboxamidine dihydrochloride]","ED50 ranking, FIG. 10",CLL cells [1]; cytotoxicity for CLL cells in vitro,lowest ED50
same,EC50,CLL cells [1]; [8],7 ± 0.7 µM
same,CLL cell apoptosis,CLL cells [4],induced CLL cell apoptosis
same,Annexin V binding to CLL cells,CLL cells [4]; co-culture for 2-6 h,increased
same,Mean caspase-3 activity,CLL cell caspase-3; 5 μM,9741 arbitrary fluorescence units
same,Mean caspase-3 activity,CLL cell caspase-3; 10 μM,7474 arbitrary fluorescence units
same,Mean caspase-3 activity,CLL cell caspase-3; 20 μM,8074 arbitrary fluorescence units
same,CLL cell caspase-3 enzyme activity (time course),CLL cell caspase-3; co-culture for 4 to 19 h,increased
same,CLL cell caspase-3 enzyme activity (concentration dependence),"CLL cell caspase-3; various concentrations, 4 h",dose-dependent increase
NCCNCCN [DETA],Effect on CLL cell apoptosis and death,[2],had no effects
"CCSC(=N)Nc1ccc(C(F)(F)F)cc1 [ETPI, S-Ethyl-N-[4-(trifluoromethyl)phenyl]isothiourea HCl]",Kd,[5],0.5 µM
same,EC50,"CLL cells [1]; Homo sapiens, CLL cell",129 ± 20 µM
same,Kd,[6],0.1 µM
same,IC50,purified human NOS2,1500 ± 240 µM
same,IC50,purified human NOS1,7.8 ± 2.5 µM
"N=C(N)NCCSSCCNC(=N)N [GED, Guanidinoethyldisulfide 2H2CO3]",EC50,"CLL cells [1]; Homo sapiens, CLL cell",317 ± 77 µM
same,IC50,purified human NOS2,50 ± 9.5 µM
same,IC50,purified human NOS1,280 ± 80 µM
"CC(=N)NCCSCC[C@H](N)C(=O)O [GW274150, (S)-2-Amino-(1-iminoethylamino)-5-thioheptanoic acid]",IC50,purified human NOS2,1.8 ± 0.3 µM
same,IC50,purified human NOS1,140 ± 15 µM
"COC(=O)[C@@H](N)CCCNC(N)=N[N+](=O)[O-] [L-NAME, N^G-Nitro-L-arginine-methyl ester HCl]",Kd,[5],0.6 µM
same,EC50,"CLL cells [1]; Homo sapiens, CLL cell",7220 ± 1300 µM
same,Kd,[6],0.5 µM
same,IC50,purified human NOS2,17 ± 1.5 µM
same,IC50,purified human NOS1,0.89 ± 0.06 µM
"CC(=N)NCCCC[C@H](N)C(=O)O [L-NIL, L-N^6-(1-Iminoethyl)-lysine]",Kd,[5],0.5 µM
same,Kd,[6],0.7 µM
same,IC50,purified human NOS2,2.1 µM
same,IC50,purified human NOS1,47 ± 1.2 µM
"CCCNC(=N)NCCC[C@H](N)C(=O)O [N-Propyl-L-arginine, N^5-[Imino(propylamino)methyl]-L-ornithine]",Kd,[5],7 µM
same,IC50,purified human NOS2,146 ± 36 µM
"N=C(NCCC[C@H](N)CNCCN)N[N+](=O)[O-] [NAAANG, (4S)-N-(4-Amino-5[aminoethyl]aminopentyl)-N′-nitroguanidine 3TFA]",EC50,"CLL cells [1]; Homo sapiens, CLL cell",5230 ± 3200 µM
"N=C(N)SCCCN [S-Aminopropyl ITU, S-(3-Aminopropyl)isothiourea 2HBr]",EC50,"CLL cells [1]; Homo sapiens, CLL cell",112 ± 45.5 µM
same,IC50,purified human NOS2,1.9 ± 0.2 µM
same,IC50,purified human NOS1,3.8 ± 0.5 µM
"CCSC(=N)N [S-Ethyl ITU, S-Ethylisothiourea HBr]",IC50,purified human NOS2,1200 ± 290 µM
same,IC50,purified human NOS1,7.7 ± 1.8 µM
"CSC(=N)N [S-Methyl ITU, S-methylisothiourea sulfate]",EC50,CLL cells [1]; [8],3080 ± 423 µM
[NH-]c1c[n+](N2CCOCC2)no1 [SIN-1],Development of marrow colonies,normal human BM cells,inhibited development of marrow colonies
same,Growth of HL-60 cells,[7],potently inhibited the growth
CCc1c2c(nc3ccc(O)cc13)-c1cc3c(c(=O)n1C2)COC(=O)[C@]3(O)CC [SN-38],NO / DETA-NO interaction with the agent's activity on CLL cells,[2],did not enhance the activity
"FC(F)(F)c1ccccc1-n1ccnc1 [TRIM, 1-(2-Trifluoromethylphenyl)imidazole]",EC50,"CLL cells [1]; Homo sapiens, CLL cell",421 ± 61 µM
same,Effect on anxiety and depression,[3],effective at reducing anxiety and depression
same,Side effects,[3],mild motor incoordination
CC1(C)N([O])C(c2ccc(C(=O)O)cc2)=[N+]([O-])C1(C)C [carboxy-PTIO],Cytotoxicity for CLL cells (in words),CLL cells [1],not cytotoxic
O=C(O)CCCc1ccc(N(CCCl)CCCl)cc1 [chlorambucil],NO / DETA-NO interaction with the agent's activity on CLL cells,[2],did not enhance the activity
COc1cccc2c1C(=O)c1c(O)c3c(c(O)c1C2=O)C[C@@](O)(C(=O)CO)C[C@@H]3O[C@H]1C[C@H](N)[C@H](O)[C@H](C)O1 [doxorubicin],NO / DETA-NO interaction with the agent's activity on CLL cells,[2],did not enhance the activity
Nc1ccn([C@@H]2O[C@H](CO)[C@@H](O)C2(F)F)c(=O)n1 [gemcitabine],NO / DETA-NO interaction with the agent's activity on CLL cells,[2],did not enhance the activity
C/C1=C2/[N-][C@H]([C@H](CC(N)=O)[C@@]2(C)CCC(=O)NC[C@@H](C)OP(=O)([O-])O[C@H]2[C@@H](O)[C@@H](n3cnc4cc(C)c(C)cc43)O[C@@H]2CO)[C@]2(C)N=C(/C(C)=C3N=C(/C=C4N=C1[C@@H](CCC(N)=O)C\4(C)C)[C@@H](CCC(N)=O)[C@]\3(C)CC(N)=O)[C@@H](CCC(N)=O)[C@]2(C)CC(N)=O.[Co+3].[OH-] [hydroxycobalamin],Cytotoxicity for CLL cells (in words),CLL cells [1],not cytotoxic
Mercaptoethylguanidine sodium succinate [MEG],EC50,CLL cells [1]; [8],181 ± 36.4 µM
S-nitrosoacetylpenicillamine [SNAP],Erythroid and myeloid colonies,normal human BM cells; isolated CD34+ cells,inhibited
same,Development of marrow colonies,normal human BM cells,inhibited development of marrow colonies
same,Growth of HL-60 cells,[7],potently inhibited the growth
